Data as given in patent US10392368B2, “Pyrazolo and triazolo bicyclic compounds as JAK kinase inhibitors” (THERAVANCE BIOPHARMA R&D IP, LLC, priority 2017, dated 2019).

What was measured:
JAK1 = target: T1, JAK1 (Homo sapiens, UniProt P23458); assay: Biochemical JAK1 kinase assay (LanthaScreen); conditions: for Ki: read-out: JAK 1 (pKi) (converted)
T1 construct: GST; purchased Life Technologies
Procedure, shortened: (§1)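 Values are pKi, calculated by Cheng-Prusoff from IC50 obtained by robust 4-parameter fitting of percent inhibition. The kinase reaction used GFP-STAT1 peptide in HEPES pH 7.5 buffer with MgCl2, EGTA and Brij-35, ATP-initiated after compound pre-incubation, 1 h at ambient temperature.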

JAK2 = target: T2, JAK2 (Homo sapiens, UniProt O60674); assay: Biochemical JAK2 kinase assay (LanthaScreen); conditions: for Ki: read-out: JAK 2 (pKi) (converted)
T2 construct: GST; purchased Life Technologies
Procedure, shortened: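 pKi values derive from pIC50 via Cheng-Prusoff, with IC50 from a 4-parameter fit of percent-inhibition TR-FRET data using Tb-anti-pSTAT1 (pTyr701) detection. Compound, GST-JAK2 and GFP-STAT1 substrate were pre-incubated 1 h, then ATP started a 1 h ambient reaction (HEPES pH 7.5, 10 mM MgCl2, 1% DMSO).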

Tyk2 = target: T3, Tyk2 (Homo sapiens, UniProt P29597); assay: Biochemical Tyk2 kinase assay (LanthaScreen); conditions: for Ki: read-out: Tyk 2 (pKi) (converted)
T3 construct: GST; purchased Life Technologies
Procedure: A panel of four LanthaScreen JAK biochemical assays (JAK1, 2, 3 and Tyk2) were carried in a common kinase reaction buffer (50 mM HEPES, pH 7.5, 0.01% Brij-35, 10 mM MgCl2, and 1 mM EGTA). Recombinant GST-tagged JAK enzymes and a GFP-tagged STAT1 peptide substrate were obtained from Life Technologies.
Serially or discretely diluted compounds were pre-incubated with each of the four JAK enzymes and the substrate in white 384-well microplates (Corning) at ambient temperature for 1 h. ATP was subsequently added to initiate the kinase reactions in 10 μL total volume, with 1% DMSO. […] Kinase reactions were allowed to proceed for 1 hour at ambient temperature before a 10 μL preparation of EDTA (10 mM final concentration) and Tb-anti-pSTAT1 (pTyr701) antibody (Life Technologies, 2 nM final concentration) in TR-FRET dilution buffer (Life Technologies) was added. The plates were allowed to incubate at ambient temperature for 1 h before being read on the EnVision reader (Perkin Elmer). Emission ratio signals (520 nm/495 nm) were recorded and utilized to calculate the percent inhibition values based on DMSO and background controls.
For dose-response analysis, percent inhibition data were plotted vs. compound concentrations, and IC50 values were determined from a 4-parameter robust fit model with the Prism software (GraphPad Software). Results were expressed as pIC50 (negative logarithm of IC50) and subsequently converted to pKi (negative logarithm of dissociation constant, Ki) using the Cheng-Prusoff equation.

[1] = test system: IL-2 stimulated pSTAT5 in Tall-1 T cells; assay: Cellular JAK3 potency assay: inhibition of IL-2 stimulated pSTAT5 in Tall-1 T cells; type: cell-based, human; conditions: for IC50: Homo sapiens, TALL-1, IL-2 stimulated pSTAT5, Tall-1 T cells, read-out: Tall-1 (pIC50) (converted)
Procedure, shortened: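 Inhibition of IL-2-induced pSTAT5 was quantified by AlphaLisa in Tall-1 cell lysates. Compound exposure lasted 1 h before 30 min stimulation with 300 ng/ml IL-2 final.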

JAK3 = target: T4, JAK3 (Homo sapiens, UniProt P52333); assay: Biochemical JAK3 kinase assay (LanthaScreen); parameters: GST; purchased Life Technologies; conditions: for Ki: read-out: JAK 3 (pKi) (converted)
T4 sequence (P52333 1-1124): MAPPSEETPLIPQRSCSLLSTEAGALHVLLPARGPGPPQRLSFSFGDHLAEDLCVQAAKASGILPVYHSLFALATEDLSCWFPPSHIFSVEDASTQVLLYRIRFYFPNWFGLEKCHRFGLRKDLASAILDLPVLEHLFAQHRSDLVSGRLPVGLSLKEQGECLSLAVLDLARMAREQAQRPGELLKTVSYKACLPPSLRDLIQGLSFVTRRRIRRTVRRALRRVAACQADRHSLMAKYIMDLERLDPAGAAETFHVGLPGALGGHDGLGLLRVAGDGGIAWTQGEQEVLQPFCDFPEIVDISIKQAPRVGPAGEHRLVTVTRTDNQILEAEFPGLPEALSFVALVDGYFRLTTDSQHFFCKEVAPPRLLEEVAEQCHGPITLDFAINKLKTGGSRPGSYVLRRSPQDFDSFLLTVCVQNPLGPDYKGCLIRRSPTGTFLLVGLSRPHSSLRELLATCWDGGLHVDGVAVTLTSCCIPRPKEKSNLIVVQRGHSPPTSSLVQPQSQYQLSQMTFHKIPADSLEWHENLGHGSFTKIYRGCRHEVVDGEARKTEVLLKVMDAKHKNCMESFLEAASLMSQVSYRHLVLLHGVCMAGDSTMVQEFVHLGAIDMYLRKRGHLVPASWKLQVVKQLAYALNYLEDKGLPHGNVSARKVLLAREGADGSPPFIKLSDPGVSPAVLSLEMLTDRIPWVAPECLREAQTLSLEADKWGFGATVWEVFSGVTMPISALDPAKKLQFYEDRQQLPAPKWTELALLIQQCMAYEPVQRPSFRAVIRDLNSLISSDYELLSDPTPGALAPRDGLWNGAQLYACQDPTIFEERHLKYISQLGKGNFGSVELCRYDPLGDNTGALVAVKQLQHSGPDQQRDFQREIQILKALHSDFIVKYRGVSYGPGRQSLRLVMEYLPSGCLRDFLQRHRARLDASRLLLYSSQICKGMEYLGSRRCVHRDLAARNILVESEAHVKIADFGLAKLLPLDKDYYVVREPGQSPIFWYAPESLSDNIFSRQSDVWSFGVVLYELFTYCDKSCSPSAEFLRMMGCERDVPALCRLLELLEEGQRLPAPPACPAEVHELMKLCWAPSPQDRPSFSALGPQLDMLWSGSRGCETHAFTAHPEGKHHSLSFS
Procedure, shortened: as §1

[2] = IL-2 stimulated pSTAT5, Tall-1 T cells
[3] = selectivity JAK3 over JAK1, difference of pKi
[4] = IL-2 stimulated pSTAT5 in Tall-1 T cells
[5] = selectivity: difference of pKi JAK3 and pKi JAK1

T3 sequence (P29597 whole entry): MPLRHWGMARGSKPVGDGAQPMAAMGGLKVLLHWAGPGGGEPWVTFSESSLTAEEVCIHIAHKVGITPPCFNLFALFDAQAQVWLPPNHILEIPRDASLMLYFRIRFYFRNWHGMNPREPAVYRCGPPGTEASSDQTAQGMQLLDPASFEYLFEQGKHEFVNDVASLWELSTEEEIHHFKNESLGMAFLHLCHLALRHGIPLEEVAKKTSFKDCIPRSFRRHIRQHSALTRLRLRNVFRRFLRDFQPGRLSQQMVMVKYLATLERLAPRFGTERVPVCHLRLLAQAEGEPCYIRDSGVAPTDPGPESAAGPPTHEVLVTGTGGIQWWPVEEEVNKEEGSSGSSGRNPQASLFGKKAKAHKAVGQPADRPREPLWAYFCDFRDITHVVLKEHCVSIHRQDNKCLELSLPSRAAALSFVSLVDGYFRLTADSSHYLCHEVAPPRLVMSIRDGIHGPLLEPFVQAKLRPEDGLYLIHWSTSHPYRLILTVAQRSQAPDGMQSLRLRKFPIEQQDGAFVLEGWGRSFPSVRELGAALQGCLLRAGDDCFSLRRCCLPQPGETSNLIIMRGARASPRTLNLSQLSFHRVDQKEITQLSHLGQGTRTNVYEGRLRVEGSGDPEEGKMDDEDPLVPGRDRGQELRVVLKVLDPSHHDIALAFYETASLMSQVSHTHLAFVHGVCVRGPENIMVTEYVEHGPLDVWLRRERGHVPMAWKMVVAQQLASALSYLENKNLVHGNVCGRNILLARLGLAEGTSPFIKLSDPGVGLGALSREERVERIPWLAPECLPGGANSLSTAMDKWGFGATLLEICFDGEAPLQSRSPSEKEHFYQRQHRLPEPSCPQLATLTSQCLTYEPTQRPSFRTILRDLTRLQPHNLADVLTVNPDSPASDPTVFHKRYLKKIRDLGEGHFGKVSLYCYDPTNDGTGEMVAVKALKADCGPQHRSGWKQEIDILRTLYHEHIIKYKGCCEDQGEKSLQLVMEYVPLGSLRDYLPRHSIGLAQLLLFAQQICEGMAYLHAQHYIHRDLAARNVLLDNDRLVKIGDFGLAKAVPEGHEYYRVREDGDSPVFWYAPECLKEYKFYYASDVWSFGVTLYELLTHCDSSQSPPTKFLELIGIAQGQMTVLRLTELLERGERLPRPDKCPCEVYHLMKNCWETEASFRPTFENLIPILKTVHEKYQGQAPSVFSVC
T2 sequence (O60674 whole entry): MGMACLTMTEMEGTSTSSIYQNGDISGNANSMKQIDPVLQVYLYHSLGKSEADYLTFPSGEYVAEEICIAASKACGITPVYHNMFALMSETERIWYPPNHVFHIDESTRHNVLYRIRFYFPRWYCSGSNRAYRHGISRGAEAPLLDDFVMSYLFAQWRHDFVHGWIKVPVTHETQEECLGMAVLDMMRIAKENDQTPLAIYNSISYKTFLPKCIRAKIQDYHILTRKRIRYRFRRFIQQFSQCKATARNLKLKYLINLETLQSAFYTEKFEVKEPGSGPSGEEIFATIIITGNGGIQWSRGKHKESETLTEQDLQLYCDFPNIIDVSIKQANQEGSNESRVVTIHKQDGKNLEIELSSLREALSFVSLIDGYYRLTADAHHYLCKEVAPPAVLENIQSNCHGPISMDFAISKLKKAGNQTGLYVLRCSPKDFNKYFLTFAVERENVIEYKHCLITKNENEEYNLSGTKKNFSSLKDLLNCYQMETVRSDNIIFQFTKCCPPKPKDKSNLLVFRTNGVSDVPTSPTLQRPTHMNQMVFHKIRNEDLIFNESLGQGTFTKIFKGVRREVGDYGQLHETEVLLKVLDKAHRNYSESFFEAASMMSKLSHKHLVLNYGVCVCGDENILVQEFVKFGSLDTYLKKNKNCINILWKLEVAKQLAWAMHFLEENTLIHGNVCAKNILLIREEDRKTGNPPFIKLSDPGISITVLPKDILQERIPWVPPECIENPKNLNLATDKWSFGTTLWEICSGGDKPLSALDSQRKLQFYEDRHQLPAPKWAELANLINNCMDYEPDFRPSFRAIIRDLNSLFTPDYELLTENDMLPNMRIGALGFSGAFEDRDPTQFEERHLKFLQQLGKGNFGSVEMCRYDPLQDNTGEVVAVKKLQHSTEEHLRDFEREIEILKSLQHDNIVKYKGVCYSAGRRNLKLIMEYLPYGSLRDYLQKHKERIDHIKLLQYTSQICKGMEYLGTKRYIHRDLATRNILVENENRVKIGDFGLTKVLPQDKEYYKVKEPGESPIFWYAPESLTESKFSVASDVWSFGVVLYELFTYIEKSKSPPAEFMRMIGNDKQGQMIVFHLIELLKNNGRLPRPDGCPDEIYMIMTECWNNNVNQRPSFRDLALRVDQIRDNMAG
T1 sequence (P23458 whole entry): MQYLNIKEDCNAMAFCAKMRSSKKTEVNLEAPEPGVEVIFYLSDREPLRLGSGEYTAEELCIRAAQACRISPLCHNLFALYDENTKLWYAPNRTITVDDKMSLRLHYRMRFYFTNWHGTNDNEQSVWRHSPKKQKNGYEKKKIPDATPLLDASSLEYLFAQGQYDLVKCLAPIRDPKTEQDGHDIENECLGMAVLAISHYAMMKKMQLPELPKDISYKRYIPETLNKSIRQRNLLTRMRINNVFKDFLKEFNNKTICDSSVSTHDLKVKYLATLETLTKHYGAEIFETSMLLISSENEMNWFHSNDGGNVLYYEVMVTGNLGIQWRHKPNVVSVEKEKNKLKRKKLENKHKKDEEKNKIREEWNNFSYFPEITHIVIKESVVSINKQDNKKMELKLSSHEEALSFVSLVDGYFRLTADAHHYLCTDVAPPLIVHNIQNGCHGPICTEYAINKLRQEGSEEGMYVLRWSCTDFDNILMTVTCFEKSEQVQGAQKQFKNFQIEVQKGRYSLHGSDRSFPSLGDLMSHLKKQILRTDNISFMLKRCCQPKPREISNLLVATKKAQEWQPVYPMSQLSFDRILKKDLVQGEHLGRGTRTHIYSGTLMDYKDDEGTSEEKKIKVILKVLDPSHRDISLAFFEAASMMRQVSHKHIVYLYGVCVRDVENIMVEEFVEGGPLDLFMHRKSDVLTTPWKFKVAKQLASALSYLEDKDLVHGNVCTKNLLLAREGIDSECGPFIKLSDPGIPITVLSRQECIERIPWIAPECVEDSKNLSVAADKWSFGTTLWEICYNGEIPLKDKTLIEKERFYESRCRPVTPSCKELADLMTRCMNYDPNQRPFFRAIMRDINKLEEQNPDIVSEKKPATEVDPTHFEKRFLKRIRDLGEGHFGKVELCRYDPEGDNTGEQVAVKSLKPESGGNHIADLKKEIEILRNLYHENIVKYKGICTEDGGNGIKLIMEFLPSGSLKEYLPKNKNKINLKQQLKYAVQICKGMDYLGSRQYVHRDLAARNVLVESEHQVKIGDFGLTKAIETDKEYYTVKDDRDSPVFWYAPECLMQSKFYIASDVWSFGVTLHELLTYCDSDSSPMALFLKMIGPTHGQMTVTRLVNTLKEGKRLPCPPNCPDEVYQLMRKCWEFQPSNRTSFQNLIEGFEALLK

Row | Compound | JAK 1 (pKi) (JAK1) | JAK 2 (pKi) (JAK2) | Tyk 2 (pKi) (Tyk2) | Tall-1 (pIC50) [1, 2] | JAK 3 (pKi) (JAK3) | JAK3 (pKi)-JAK1 (pKi) (JAK3; [3]) | Tall-1 (pIC50) [1, 4] | JAK3 (pKi)-JAK1 (pKi) (JAK3; [5]) | Ki (JAK1) [nM] | Ki (JAK2) [nM] | Ki (Tyk2) [nM] | IC50 [1] [nM] | Ki (JAK3) [nM]
1 | C=CC(=O)N1CC2(CC(Oc3nc(-c4ccc(O)cc4)cc4[nH]ncc34)C2)C1 [Compound 15-7] | E (a pKi value of 7 or below (Ki of 100 nM or above)) | D (a pKi value between 7 and 8 (Ki between 100 nM and 10 nM)) | E (a pKi value of 7 or below (Ki of 100 nM or above)) | A (a pIC50 value≥7.5 (IC50≤32 nM)) | B (a pKi value between 9 and 10 (Ki between 1 nM and 0.1 nM)) | B (a value of 2.3 to 3) | – | – | – | – | – | – | –
2 | C=CC(=O)N1CC(CC)(COc2nc(-c3ccc(O)cc3)nc3[nH]ncc23)C1 [Compound 3-63] | E (a pKi value of 7 or below (Ki of 100 nM or above)) | E (a pKi value of 7 or below (Ki of 100 nM or above)) | E (a pKi value of 7 or below (Ki of 100 nM or above)) | – | A (a pKi value≥10 (Ki≤0.1 nM)) | – | B (a pIC50 value between 6.7 (included) and 7.5 (IC50 between 200 nM and 32 nM)) | A (a value of 3 or above) | – | – | – | – | –
3 | C=CC(=O)N1CCC(C)(Oc2cc(-c3ccc(O)cc3)cc3[nH]ncc23)C1 (stereo not drawn) [Compound 13-15] | E (a pKi value of 7 or below (Ki of 100 nM or above)) | D (a pKi value between 7 and 8 (Ki between 100 nM and 10 nM)) | E (a pKi value of 7 or below (Ki of 100 nM or above)) | B (a pIC50 value between 6.7 (included) and 7.5 (IC50 between 200 nM and 32 nM)) | B (a pKi value between 9 and 10 (Ki between 1 nM and 0.1 nM)) | A (a value of 3 or above) | – | – | – | – | – | – | –
4 | CN(C)C/C=C/C(=O)N1CC(CN(C)c2cc(-c3ccc(O)c(F)c3)cc3[nH]ncc23)C1 [Compound 4-6] | E (a pKi value of 7 or below (Ki of 100 nM or above)) | E (a pKi value of 7 or below (Ki of 100 nM or above)) | E (a pKi value of 7 or below (Ki of 100 nM or above)) | – | B (a pKi value between 9 and 10 (Ki between 1 nM and 0.1 nM)) | – | B (a pIC50 value between 6.7 (included) and 7.5 (IC50 between 200 nM and 32 nM)) | A (a value of 3 or above) | – | – | – | – | –
5 | CN(C)C/C=C/C(=O)N1CCC(C)(Oc2cc(-c3ccc(O)c(F)c3)cc3[nH]ncc23)CC1 [Compound 6-6] | – | – | – | – | – | A (a value of 3 or above) | – | – | > 100 | 10 to 100 | > 100 | < 31.6 | 0.1 to 1
6 | C=CC(=O)N1CCC(COc2cc(-c3ccc(O)cc3)nc3[nH]ncc23)CC1 [Compound 14-2] | E (a pKi value of 7 or below (Ki of 100 nM or above)) | E (a pKi value of 7 or below (Ki of 100 nM or above)) | E (a pKi value of 7 or below (Ki of 100 nM or above)) | B (a pIC50 value between 6.7 (included) and 7.5 (IC50 between 200 nM and 32 nM)) | A (a pKi value≥10 (Ki≤0.1 nM)) | A (a value of 3 or above) | – | – | – | – | – | – | –
7 | C=CC(=O)N1CC(C(=O)Nc2cc(-c3ccc(O)cc3)cc3[nH]ncc23)C1 [Compound 12-46] | – | – | – | – | – | A (a value of 3 or above) | – | – | > 100 | 10 to 100 | > 100 | 31.6 to 200 | < 0.1
